# Assay results reported in patent US4207326A, “Antimicrobial quaternary pyrazole derivatives” (Cilag-Chemie A.G., priority 1979, dated 1980).
# Where two headings read alike, the source gives them in different places.
# Assays:
# C. tropicalis = assay: Antimycotic activity: Minimum Inhibitory Concentration; format: cell-based, Candida tropicalis NCPF 3111; conditions: Candida tropicalis, pH 5.5, 37° C., 72 hours
# Experimental: (§1) The antimicrobial activity was determined by inoculation of the test microorganism into suitable growth media containing solutions of the compounds at concentrations of 100, 50, 10, 5, 1.0, 0.5 and 0.1 μg/ml. The reference antibiotics used were Gentamicin for the antibacterial tests and Amphotericin B for the antimycotic and antifungal tests. After incubation the antimicrobial activity was recorded as the Minimal Inhibitory Concentration (M.I.C.), i.e., the lowest concentration preventing macroscopically visible growth, for each test compound against each organism.
# (§2) An initial solution of each formula (I) compound to be tested in sterile distilled water was prepared at a concentration of 1000 μg/ml. With appropriate dilutions using sterile distilled water, additional solutions were prepared at concentrations of 500, 100, 50, 10, 5 and 1 μg/ml.
# (§3) The two species, C. albicans and C. tropicalis, were maintained on Sabouraud-Dextrose Agar (Oxoid CM41) and cultures for the preparation of the inoculum were incubated on this agar at 37° C. for 48 hours. 4.5 Ml volumes of citric acid-phosphate buffer pH 5.5 plus Yeast-Nitrogen Base (Difco 0392-15) were then inoculated from the agar cultures and incubated at 37° C. for 48 hours. 0.1 Ml aliquots of these cultures were then added to 100 ml volumes of sterile physiological saline to give the final inocula.
# (§4) (b) For the tests on each of the C. albicans, C. tropicalis and C. neoformans strains and each of the test and reference compounds, a series of 8 tubes containing 4.5 ml volumes of citric acid-phosphate buffer pH 5.5 plus Yeast-Nitrogen Base (Difco 0392-15) were prepared. To 7 of these were added 0.5 ml volumes of the final solutions of the test compounds, giving final concentrations in the broths of 100, 50, 10, 5, 1.0, 0.5 and 0.1 μg/ml. To the eighth tube in each series was added 0.5 ml of the solvent used and diluted as for the preparation of the 1000 μg/ml solution of the compound. This tube was used as the growth control. The tubes were then inoculated with 0.1 ml aliquots of the inocula prepared as in "(b) Fungi" above. The tubes inoculated with the C. albicans and C. tropicalis were inoculated at 37° C. for 72 hours and the tubes inoculated with the C. neoformans straim were incubated at 30° C. for 72 hours. […] The tubes were then examined for evidence of growth as shown by turbidity of the medium and the lowest concentration of the test compound which prevented fungal growth was recorded as the Minimal Inhibitory Concentration. This test procedure was carried out on two separate days.
# T. mentagrophytes = assay: Antifungal activity: Minimum Inhibitory Concentration; format: cell-based, Trichophyton mentagrophytes NCPF 410
# Experimental: as §1, §2
# T. mentagrophytes NCPF 410
# (§5) The A. corymbifera, A. fumigatus, S. schenkii, T. rubrum, T. mentagrophytes, M. canis and P. verrucosa strains were all maintained on Sabouraud-Dextrose Agar (Oxoid CM 41) by incubating for 14 days at 27° C. To prepare the inocula 30 ml volumes of Sabouraud-Liquid medium (Oxoid CM 147) were inoculated from the agar cultures and incubated at 27° C. until heavy uniform growth resulted. The mycelial growth was then broken up by shaking with glass beads.
# (§6) 1 Ml aliquots were removed from each of the cultures for the purpose of making viable counts and the cultures were then held at 4° C. The viable counts were made by preparing serial ten-fold dilutions of the cultures in sterile physiological saline and spreading on plates of Sabouraud-Dextrose Agar (Oxoid CM 41) which were then incubated at 27° C. for 14 days. When the viable counts had confirmed that each of the inocula contained approximately 10^6 colony forming units (C.F.U.) per ml the cultures were withdrawn from the refrigerator and used as the inocula for the tests.
# (§7) (c) For the tests on each of the remaining seven strains and each of the test and reference compounds, a series of 8 tubes containing 4.5 ml volumes of Sabouraud-Liquid Medium (Oxoid CM 147) were prepared. To 7 of these were added 0.5 ml volumes of the final solutions of the test compounds, giving final concentrations in the broths of 100, 50, 10, 5, 1.0, 0.5 and 0.1 μg/ml. To the eighth tube in each series was added 0.5 ml of the solvent used and diluted as for the preparation of the 500 μg/ml solution of the compound. This tube was used as a growth control. The tubes were then inoculated with 0.1 ml aliquots of the inocula prepared as in "(b) Fungi" above. The tubes were then incubated at 27° C. with continuous shaking for a period of one week. The tubes were then examined for evidence of growth as shown by the presence of mycelial growth in the medium and the lowest concentration of the test compound which prevented fungal growth was recorded as the Minimal Inhibitory Concentration. This test procedure was carried out on two separate days.
# T. rubrum = assay: as above; format: cell-based, Trichophyton rubrum NCPF 197
# Experimental: as §1, §2, §5, §6, §7
# C. neoformans = assay: Antimycotic activity: Minimum Inhibitory Concentration; format: cell-based, Cryptococcus neoformans NCPF 3184; conditions: Cryptococcus neoformans, pH 5.5, 30° C., 72 hours
# Experimental: as §1, §2
# The C. neoformans was also maintained on Sabouraud-Dextrose Agar (Oxoid CM 41), but in this case cultures for the preparation of the inoculum were incubated on this agar at 30° C. for 48 hours. A 4.5 ml volume of citric acid-phosphate buffer pH 5.5 plus Yeast-Nitrogen Base (Difco-0392-15) was then inoculated from the agar culture and incubated at 30° C. for 48 hours. A 0.1 ml aliquot of this culture was then added to 100 ml sterile physiological saline to give the final inoculum.
# as §4
# P. verrucosa = assay: Antifungal activity: Minimum Inhibitory Concentration; format: cell-based, Phialophore verrucosa NCPF 1119
# Experimental: as §1, §2, §5, §6, §7
# S. schenkii = assay: as above; format: cell-based, Sporotrichon schenkii NCPF 3182
# Experimental: as §1, §2, §5, §6, §7
# C. albicans = assay: Antimycotic activity: Minimum Inhibitory Concentration; format: cell-based, Candida albicans ATCC 10231
# Experimental: as §1, §2, §3, §4
# A. corymbifera = assay: Antifungal activity: Minimum Inhibitory Concentration; format: cell-based, Absidia corymbifera NCPF 2001
# Experimental: as §1, §2
# A. corymbifera NCPF 2001
# as §5, §6, §7
# A. fumigatus = assay: as above; format: cell-based, Aspergillus fimigatus (A. fumigatus) NCPF 2140
# Experimental: as §1, §2, §5, §6, §7
# M. canis = assay: as above; format: cell-based, Microsporum canis NCPF 351
# Experimental: as §1, §2, §5, §6, §7
# P. mirabilis = assay: Antibacterial activity: Minimum Inhibitory Concentration; format: cell-based, Proteus mirabilis NCTC 8559; conditions: P. mirabilis, 37° C., 24 hours
# Experimental: as §1, §2
# (§8) They were cultured and maintained on Tryptone Soy Agar (Oxoid CM 131), with the addition of 10% horse blood for the S. pyogenes.
# (§9) To prepare the organisms as inocula for the test, slopes of this medium were streaked with the organisms and incubated at 37° C. for 24 hours. 4.5 Ml volumes of Brian-Heart Infusion Broth (Oxoid CM 225) were then inoculated with a platinum loop from the agar slope cultures and incubated for 24 hours at 37° C. The final inocula were then prepared by adding 0.1 ml aliquots of the Brain-Heart Infusion Broth cultures to 100 ml volumes of sterile physiological saline.
# (§10) (a) For the test on each of the bacterial strains and each of the test and reference compounds, a series of 8 tubes containing 4.5 ml volumes of Brain-Heart Infusion Broth (Oxoid CM 225) were prepared. To 7 of these were added 0.5 ml volumes of the final solutions of the test compouns, giving final concentrations in the broths of 100, 50, 10, 5, 1.0, 0.5 and 0.1 μg/ml. To the eighth tube in each series was added 0.5 ml of the solvent used and diluted as for the preparation of the 1000 μg/ml solution of the compound. This tube was used as the growth control. The tubes were inoculated with 0.02 ml aliquots of the inocula prepared in accordance with "(a) Bacteria" above, and incubated at 37° C. for 24 hours. The tubes were then examined for evidence of bacterial growth as shown by turbidity of the medium and the lowest concentration of the test compound which prevented bacterial growth was recorded as the Minimal Inhibitory Concentration. This test procedure was carried out on two separate days.
# P. aeruginosa = assay: as above; format: cell-based, Pseudomonas aeruginosa ATCC 9027; conditions: P. aeruginosa, 37° C., 24 hours
# Experimental: as §1, §2, §8, §9, §10
# S. aureus = assay: as above; format: cell-based, Staphylococcus aureus ATCC 6538; conditions: 24 hours
# Experimental: as §1, §2, §8, §9, §10
# S. pyogenes = assay: as above; format: cell-based, Streptococcus pyogenes NCTC 8198; conditions: 24 hours
# Experimental: as §1, §2, §8, §9, §10
# E. coli = assay: as above; format: cell-based, Escherichia coli ATCC 8739; conditions: 24 hours
# Experimental: as §1, §2, §8, §9, §10
compound,measurement,setting,value
"C[C@@H]1[C@H](O)[C@@H](C)/C=C/C=C/C=C/C=C/C=C/C=C/C=C/[C@H](O[C@@H]2O[C@H](C)[C@@H](O)[C@H](N)[C@@H]2O)C[C@@H]2O[C@](O)(C[C@@H](O)C[C@@H](O)[C@H](O)CC[C@@H](O)C[C@@H](O)CC(=O)O[C@H]1C)C[C@H](O)[C@H]2C(=O)O [Amphotericin B, reference compound]",MIC,"C. tropicalis; pH 5.5, read-out: Minimum Inhibitory Concentrations, C. tropicalis, Day 1",1 µg/mL
same,MIC,"C. tropicalis; pH 5.5, read-out: Minimum Inhibitory Concentrations, C. tropicalis, Day 2",1 µg/mL
same,Minimum Inhibitory Concentration,"T. mentagrophytes; T. mentagrophytes, Day 1, 27° C., one week",50 µg/mL
same,MIC,"T. mentagrophytes; Trichophyton mentagrophytes, read-out: Minimum Inhibitory Concentration",50 µg/mL
same,Minimum Inhibitory Concentration,"T. rubrum; T. rubrum, Day 2, 27° C., one week",50 µg/mL
same,MIC,"T. rubrum; Trichophyton rubrum, read-out: Minimum Inhibitory Concentration",50 µg/mL
same,MIC,"C. neoformans; pH 5.5, read-out: Minimum Inhibitory Concentrations, C. neoformans, Day 1",1 µg/mL
same,MIC,"C. neoformans; pH 5.5, read-out: Minimum Inhibitory Concentrations, C. neoformans, Day 2",0.5 µg/mL
same,Minimum Inhibitory Concentration,"P. verrucosa; P. verrucosa, Day 2, 27° C., one week",10 µg/mL
same,MIC,"P. verrucosa; Phialophora verrucosa, read-out: Minimum Inhibitory Concentration",10 µg/mL
same,Minimum Inhibitory Concentration,"S. schenkii; S. schenkii, Day 2, 27° C., one week",50 µg/mL
same,MIC,S. schenkii; read-out: Minimum Inhibitory Concentration,50 µg/mL
same,Minimum Inhibitory Concentrations,"C. albicans; C. albicans, Day 2, pH 5.5, 37° C., 72 hours",1 µg/mL
same,MIC,"C. albicans; Candida albicans, pH 5.5, read-out: Minimum Inhibitory Concentrations",1 µg/mL
same,Minimum Inhibitory Concentration,"A. corymbifera; A. corymbifera, Day 2, 27° C., one week",5 µg/mL
same,MIC,"A. corymbifera; Lichtheimia corymbifera, read-out: Minimum Inhibitory Concentration",5 µg/mL
same,Minimum Inhibitory Concentration,"A. fumigatus; A. fumigatus, Day 2, 27° C., one week",5 µg/mL
same,MIC,"A. fumigatus; Aspergillus fumigatus, read-out: Minimum Inhibitory Concentration",5 µg/mL
same,Minimum Inhibitory Concentration,"M. canis; M. canis, Day 2, 27° C., one week",1 µg/mL
same,MIC,"M. canis; Microsporum canis, read-out: Minimum Inhibitory Concentration",1 µg/mL
Gentamicin [reference compound],Minimum Inhibitory Concentration,P. mirabilis; Day 1,5 µg/mL
same,Minimum Inhibitory Concentration,P. mirabilis; Day 2,5 µg/mL
same,Minimum Inhibitory Concentration,P. aeruginosa; Day 1,1 µg/mL
same,Minimum Inhibitory Concentration,P. aeruginosa; Day 2,1 µg/mL
same,Minimum Inhibitory Concentration,"S. aureus; Day 1, 37° C.",0.5 µg/mL
same,Minimum Inhibitory Concentration,"S. aureus; Day 2, 37° C.",0.5 µg/mL
same,Minimum Inhibitory Concentration,"S. pyogenes; Day 1, 37° C.",0.5 µg/mL
same,Minimum Inhibitory Concentration,"S. pyogenes; Day 2, 37° C.",0.5 µg/mL
same,Minimum Inhibitory Concentration,"E. coli; Day 1, 37° C.",10 µg/mL
same,Minimum Inhibitory Concentration,"E. coli; Day 2, 37° C.",10 µg/mL
